We go through 23 compounds from patent US12516039B2, “N-linked isoquinoline amides as LRRK2 inhibitors, pharmaceutical compositions, and uses thereof” (Merck Sharp & Dohme LLC, priority 2020, dated 2026).

SMILES strings stand for the structures.

T1 sequence (Q5S007 970-2527 G2019S limits assumed): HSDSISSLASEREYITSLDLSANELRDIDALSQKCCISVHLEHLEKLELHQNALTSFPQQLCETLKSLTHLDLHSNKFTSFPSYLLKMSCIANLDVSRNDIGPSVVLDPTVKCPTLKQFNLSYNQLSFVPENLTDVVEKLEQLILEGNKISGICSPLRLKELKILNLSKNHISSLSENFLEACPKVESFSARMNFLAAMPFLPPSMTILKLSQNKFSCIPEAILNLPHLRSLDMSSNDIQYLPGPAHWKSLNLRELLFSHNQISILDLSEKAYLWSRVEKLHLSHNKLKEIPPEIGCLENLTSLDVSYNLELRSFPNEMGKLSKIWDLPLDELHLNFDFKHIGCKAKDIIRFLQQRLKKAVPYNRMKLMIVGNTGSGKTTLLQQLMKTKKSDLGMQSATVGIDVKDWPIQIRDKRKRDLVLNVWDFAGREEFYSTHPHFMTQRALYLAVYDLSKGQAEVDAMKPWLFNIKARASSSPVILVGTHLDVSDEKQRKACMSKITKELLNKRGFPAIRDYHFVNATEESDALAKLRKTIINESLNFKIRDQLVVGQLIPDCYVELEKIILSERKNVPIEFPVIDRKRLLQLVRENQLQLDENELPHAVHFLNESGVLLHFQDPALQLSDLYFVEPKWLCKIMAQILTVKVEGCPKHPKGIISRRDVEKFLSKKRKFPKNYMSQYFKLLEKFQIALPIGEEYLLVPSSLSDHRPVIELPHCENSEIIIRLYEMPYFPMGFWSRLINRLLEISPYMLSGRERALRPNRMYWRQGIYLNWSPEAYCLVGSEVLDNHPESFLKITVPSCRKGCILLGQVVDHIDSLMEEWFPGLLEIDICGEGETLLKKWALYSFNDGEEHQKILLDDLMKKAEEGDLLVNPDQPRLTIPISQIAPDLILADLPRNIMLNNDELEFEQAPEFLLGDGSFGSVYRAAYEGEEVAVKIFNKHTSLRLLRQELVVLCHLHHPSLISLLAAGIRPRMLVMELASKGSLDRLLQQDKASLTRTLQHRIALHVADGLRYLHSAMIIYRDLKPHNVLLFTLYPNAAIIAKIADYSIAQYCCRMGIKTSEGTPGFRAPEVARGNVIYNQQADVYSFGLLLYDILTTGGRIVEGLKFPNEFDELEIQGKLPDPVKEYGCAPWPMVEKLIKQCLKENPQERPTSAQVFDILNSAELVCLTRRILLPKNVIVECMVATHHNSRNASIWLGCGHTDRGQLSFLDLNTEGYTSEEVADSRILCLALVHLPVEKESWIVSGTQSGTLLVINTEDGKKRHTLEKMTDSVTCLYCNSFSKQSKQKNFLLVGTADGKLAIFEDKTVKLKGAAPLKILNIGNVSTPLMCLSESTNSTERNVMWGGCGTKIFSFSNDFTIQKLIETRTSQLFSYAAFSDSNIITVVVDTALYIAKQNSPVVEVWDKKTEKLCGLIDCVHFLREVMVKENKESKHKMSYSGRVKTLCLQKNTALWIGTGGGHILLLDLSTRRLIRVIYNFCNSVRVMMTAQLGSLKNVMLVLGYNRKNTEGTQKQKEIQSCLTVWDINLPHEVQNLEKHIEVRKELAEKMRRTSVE

The first experiment addresses T1, GST-tagged truncated human mutant G2019S LRRK2 (Homo sapiens, UniProt Q5S007, G2019S).
T1 construct: GST-tagged truncated human mutant G2019S LRRK2; purchased Life Technologies Corporation (Carlsbad, CA)
Put plainly: LRRK2 G2019S Km ATP LanthaScreen assay. It counts as biochemical. To be noted: 134 μM ATP (Km ATP), LRRKtide substrate, mean of several tests. A digest of the protocol: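 GST-tagged truncated human LRRK2 G2019S (1.25 nM enzyme solution) was preincubated 15 min with compound, then reacted 90 min at ambient temperature with fluorescein-LRRKtide (400 nM solution) and 134 μM ATP (Km) in Tris pH 8.5. EDTA stop; Tb anti-phospho-LRRKtide TR-FRET (520/495 ratio). IC50 from 4-parameter fits, mean of several runs.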
(In general: In TR-FRET formats the signal depends on donor and acceptor labels being close together.)
`CC1(N2CCN(c3cc4cc(NC(=O)C5CC56CCOCC6)ncc4cc3C3CC3)CC2)COCC1O` (centres unmarked) [Ex-6.11]: the “LRRK2 pIC50” value is on record as 9.57.

Staying with this experiment, now noted: 134 μM ATP (Km ATP), LRRKtide substrate, mean of several tests, read-out: LRRK2 pIC50 (converted).
For `CC1(N2CCN(c3cc4cc(NC(=O)C5CC56CCOC6)ncc4cc3Cl)CC2)COCC1O` (single isomer, unassigned) [Ex-2.9, (1R,3R or 1S,3S)-N-(7-chloro-6-(4-((3R,4R or 3S,4S)-4-hydroxy-3-methyltetrahydrofuran-3-yl)piperazin-1-yl)isoquinolin-3-yl)-5-oxaspiro[2.4]heptane-1-carboxamide], the IC50 is 0.195 nM.

Regarding `CC1(N2CCN(c3cc4cc(NC(=O)C5CC56CCCOC6)ncc4cc3Cl)CC2)COCC1O` (single isomer, unassigned) [Ex-1.14, (1R,3S, or 1R,3R, or 1S,3S, or 1S,3R)-N-(7-chloro-6-(4-((3R,4R or 3S,4S)-4-hydroxy-3-methyltetrahydrofuran-3-yl)piperazin-1-yl)isoquinolin-3-yl)-5-oxaspiro[2.5]octane-1-carboxamide], the IC50 was 0.603 nM.

As to `Cc1cc2cnc(NC(=O)C3CC34CCOC4)cc2cc1N1CCN(C2(C)COCC2O)CC1` (single isomer, unassigned) [Ex-6.2, (1R, 3S or 1S,3R, or 1R,3S, or 1S,3S)-N-(6-(4-((3R, 4R or 3S,4S)-4-hydroxy-3-methyltetrahydrofuran-3-yl)piperazin-1-yl)-7-methylisoquinolin-3-yl)-5-oxaspiro[2.4]heptane-1-carboxamide], the IC50 was 1.38 nM.

Consider `Cn1ncc(C2CC2C(=O)Nc2cc3cc(N4CCN(C5(C)CCOC5)CC4)c(Cl)cc3cn2)c1C(F)(F)F` (single isomer, unassigned) [Ex-10.28, (1R,2R or 1S,2S)-N-[7-chloro-6-[4-((R or S)-3-methyltetrahydrofuran-3-yl)piperazin-4-ium-1-yl]-3-isoquinolyl]-2-[1-methyl-5-(trifluoromethyl)pyrazol-4-yl]cyclopropanecarboxamide], for which the IC50 was 56.2 nM.

On to `CC1(N2CCN(c3cc4cc(NC(=O)C5CC56CCC6)ncc4cc3Cl)CC2)COCC1O` (single isomer, unassigned) [Ex-1.7, (1R or 1S)-N-(7-chloro-6-(4-((3R,4R or 3S,4S)-4-hydroxy-3-methyltetrahydrofuran-3-yl)piperazin-1-yl)isoquinolin-3-yl)spiro[2.3]hexane-1-carboxamide], for which the IC50 was 6.61 nM.

`Cc1cc2cnc(NC(=O)C3CCOC(C)(C)C3)cc2cc1N1CCN(C2(C)CCOC2)CC1` (single isomer, unassigned) [Ex-10.43, (4R or 4S)-2,2-dimethyl-N-[7-methyl-6-[4-((R or S)-3-methyltetrahydrofuran-3-yl)piperazin-1-yl]-3-isoquinolyl]tetrahydropyran-4-carboxamide]: the IC50 is 19.5 nM.

In the case of `CC1(N2CCN(c3cc4cc(NC(=O)C5CCC(F)(F)CO5)ncc4cc3Cl)CC2)COCC1O` (single isomer, unassigned) [Ex-10.2, (2R or 2S)-N-(7-chloro-6-((3R, 4R or 3S, 4S)-4-(4-hydroxy-3-methyltetrahydrofuran-3-yl)piperazin-1-yl)isoquinolin-3-yl)-5,5-difluorotetrahydro-2H-pyran-2-carboxamide], the IC50 is 0.676 nM.

With `CC1(N2CCN(c3cc4cc(NC(=O)C5CCC56CCOCC6)ncc4cc3Cl)CC2)COCC1O` (single isomer, unassigned) [Ex-1.28, (R or S)-N-(7-chloro-6-(4-((3R,4R or 3S,4S)-4-hydroxy-3-methyltetrahydrofuran-3-yl)piperazin-1-yl)isoquinolin-3-yl)-7-oxaspiro[3.5]nonane-1-carboxamide], the IC50 was 12 nM.

On to `Cc1cc2cnc(NC(=O)C3C4CCOCC43)cc2cc1N1CCN(C2(C)CCOC2)CC1` (single isomer, unassigned) [Ex-10.48, (1S,6R,7R, 1R,6S,7R, or 1R, 6S,7S, or 1S,6S,7S)-N-(7-methyl-6-(4-((R or S)-3-methyltetrahydrofuran-3-yl)piperazin-1-yl)isoquinolin-3-yl)-3-oxabicyclo[4.1.0]heptane-7-carboxamide], for which the IC50 was 17.4 nM.

With `CCC1C(C(=O)Nc2cc3cc(N4CCN(C5(C)CCOC5)CC4)c(Cl)cc3cn2)C1c1cnn(C)c1` (single isomer, unassigned) [Ex-9.10], the IC50 was 0.0813 nM.

As to `CC1(C2CCOC2)CC1C(=O)Nc1cc2cc(N3CCN(C4(C)COCC4O)CC3)c(Cl)cc2cn1` (single isomer, unassigned) [Ex-10.87, (1R,2R or 1S,2S, or 1R,2S, or 1S,2R)-N-[7-chloro-6-[4-((3R,4R or 3S,4S)-4-hydroxy-3-methyl-tetrahydrofuran-3-yl)piperazin-1-yl]-3-isoquinolyl]-2-methyl-2-tetrahydrofuran-3-yl-cyclopropanecarboxamide], the IC50 is 0.0813 nM.

Consider `CC1(c2ccccn2)CC1C(=O)Nc1cc2cc(N3CCN(C4(C)COCC4O)CC3)c(Cl)cc2cn1` (single isomer, unassigned) [Ex-11.1, (1R,2R)(3R,4R)— or (1R,2S)(3R,4R)— or (1S,2R)(3R,4R)— or (1S,2S)(3R,4R)— or (1R,2R)(3S,4S)— or (1R,2S)(3S,4S)— or (1S,2R)(3S,4S)— or (1S,2S)(3S,4S)-N-(7-chloro-6-(4-(4-hydroxy-3-methyltetrahydrofuran-3-yl)piperazin-1-yl)isoquinolin-3-yl)-2-methyl-2-(pyridin-2-yl)cyclopropane-1-carboxamide], for which the IC50 was 0.0813 nM.

For the compound `CC1(N2CCN(c3cc4cc(NC(=O)C5C6COCC65)ncc4cc3Cl)CC2)COCC1O` (single isomer, unassigned) [Ex-1.10, (1R or S)-N-(7-chloro-6-(4-((3R,4R or 3S,4S)-4-hydroxy-3-methyltetrahydrofuran-3-yl)piperazin-1-yl)isoquinolin-3-yl)-3-oxabicyclo[3.1.0]hexane-6-carboxamide], the IC50 was 107 nM.

As for `Cc1cc2cnc(NC(=O)C3CC3c3ccccn3)cc2cc1N1CCN(C2(C)COCC2F)CC1` (single isomer, unassigned) [Ex-6.14], the IC50 was 0.148 nM.

As for `COC1COCC1N1CCN(c2cc3cc(NC(=O)C4CC45CCOCC5)ncc3cc2Cl)CC1` (single isomer, unassigned) [Ex-5.7], the IC50 was 2.63 nM.

`Cn1ccc(C2CC2C(=O)Nc2cc3cc(N4CCN(C5(C)COCC5F)CC4)c(Cl)cc3cn2)n1` (single isomer, unassigned) [Ex-10.18, (1R,2R or 1S,2S)-N-[7-chloro-6-[4-((3R,4R or 3S,4S)-4-fluoro-3-methyl-tetrahydrofuran-3-yl)piperazin-1-yl]-3-isoquinolyl]-2-(1-methylpyrazol-3-yl)cyclopropanecarboxamide]: the IC50 is 8.71 nM.

Turning to `Cc1cc2cnc(NC(=O)C3CC34CCOC4)cc2cc1N1CCN(C2(C)COCC2O)CC1` (single isomer, unassigned) [Ex-6.6, (1R, 3S or 1S,3R, or 1R,3S, or 1S,3S)-N-(6-(4-((3R, 4R or 3S,4S)-4-hydroxy-3-methyltetrahydrofuran-3-yl)piperazin-1-yl)-7-methylisoquinolin-3-yl)-5-oxaspiro[2.4]heptane-1-carboxamide], the IC50 was 45.7 nM.

As for `CCC1C(C(=O)Nc2cc3cc(N4CCN(C5(C)COCC5O)CC4)c(Cl)cc3cn2)C1c1ccn(C)n1` (single isomer, unassigned) [Ex-10.65, (1R,2R,3R, or 1R,2S,3R, or 1S,2R,3S, or 1S,2S,3S)-N-[7-chloro-6-[4-( (3R,4R or 3S,4S)-4-hydroxy-3-methyl-tetrahydrofuran-3-yl)piperazin-1-yl]-3-isoquinolyl]-2-ethyl-3-(1-methylpyrazol-3-yl)cyclopropanecarboxamide], the IC50 was 0.0813 nM.

`CC1(N2CCN(c3cc4cc(NC(=O)C5CC56CC6(F)F)ncc4cc3Cl)CC2)COCC1O` (single isomer, unassigned) [Ex-3.2]: the IC50 is 1.07 nM.

Consider `Cn1ncc(C2CC2C(=O)Nc2cc3cc(N4CCN(C5(C)COCC5F)CC4)c(Cl)cc3cn2)c1C(F)(F)F` (single isomer, unassigned) [Ex-10.61, (1R,2R or 1S,2S)-N-[7-chloro-6-[4-((3R,4R or 3S,4S)-4-fluoro-3-methyl-tetrahydrofuran-3-yl)piperazin-4-ium-1-yl]-3-isoquinolyl]-2-[1-methyl-5-(trifluoromethyl)pyrazol-4-yl]cyclopropanecarboxamide], for which the IC50 is 3.02 nM.

Consider `Cn1ncc(C2CC2C(=O)Nc2cc3cc(N4CCN(C5(C)COCC5O)CC4)c(Cl)cc3cn2)n1` (single isomer, unassigned) [Ex-16.2, (1S,2R or 1S,2S)-N-(N-(7-chloro-6-(4-(4-hydroxy-3-methyltetrahydrofuran-3-yl)piperazin-1-yl)isoquinolin-3-yl)-2-(2-methyl-2H-1,2,3-triazol-4-yl)cyclopropane-1-carboxamide], for which the IC50 was 0.0813 nM.

As to `CC1(N2CCN(c3cc4cc(NC(=O)C5CC56CC6)ncc4cc3Cl)CC2)COCC1O` (single isomer, unassigned) [Ex-2.12, (R or S)-N-(7-chloro-6-(4-((3R,4R or 3S,4S)-4-hydroxy-3-methyltetrahydrofuran-3-yl)piperazin-1-yl)isoquinolin-3-yl)spiro[2.2]pentane-1-carboxamide], the IC50 is 0.513 nM.
